Data from patent US12667572B2, “Tricyclic compounds useful in the treatment of cancer, autoimmune and inflammatory disorders” (SCHRÖDINGER, INC., priority 2021, dated 2026).

What was measured:
[1] = biological target: T1, full-length MALT1 protein His-MALT1(1-824) (Homo sapiens, UniProt Q9UDY8); assay: MALT1 protease assay, Assay 2 (1 nM MALT1, Ac-LRSR-AMC substrate); type: biochemical; conditions: 1 nM MALT1, 50 μM Ac-LRSR-AMC, 2 h pre-incubation, 8 hr incubation at RT
T1 construct: full-length MALT1 protein His-MALT1(1-824); His (N); made in house; host or cells: baculovirus-infected insect cells
T1 sequence (Q9UDY8 1-824): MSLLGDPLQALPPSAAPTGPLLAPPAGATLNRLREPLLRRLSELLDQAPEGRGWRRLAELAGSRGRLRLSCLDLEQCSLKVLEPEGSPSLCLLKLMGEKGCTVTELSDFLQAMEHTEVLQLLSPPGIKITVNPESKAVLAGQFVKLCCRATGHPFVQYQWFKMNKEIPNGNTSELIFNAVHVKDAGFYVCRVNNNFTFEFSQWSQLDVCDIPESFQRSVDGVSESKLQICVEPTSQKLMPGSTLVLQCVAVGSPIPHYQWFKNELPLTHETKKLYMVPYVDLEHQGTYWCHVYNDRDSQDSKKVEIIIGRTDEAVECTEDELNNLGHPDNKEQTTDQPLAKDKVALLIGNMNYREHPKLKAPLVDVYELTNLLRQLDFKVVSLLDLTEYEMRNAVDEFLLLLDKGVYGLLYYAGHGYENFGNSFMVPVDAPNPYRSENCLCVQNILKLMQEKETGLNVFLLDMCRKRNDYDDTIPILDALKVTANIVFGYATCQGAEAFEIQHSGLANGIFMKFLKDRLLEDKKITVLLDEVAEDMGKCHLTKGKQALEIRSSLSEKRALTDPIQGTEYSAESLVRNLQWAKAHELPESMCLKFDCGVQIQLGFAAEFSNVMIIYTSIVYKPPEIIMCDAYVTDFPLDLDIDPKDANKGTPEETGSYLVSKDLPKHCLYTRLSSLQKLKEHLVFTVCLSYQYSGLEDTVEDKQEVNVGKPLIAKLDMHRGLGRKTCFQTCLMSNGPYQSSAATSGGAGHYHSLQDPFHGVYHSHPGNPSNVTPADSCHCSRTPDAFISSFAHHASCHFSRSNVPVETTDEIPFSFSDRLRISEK
Outline: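 Full-length His-MALT1(1-824) from baculovirus-infected insect cells, pre-incubated with compound 2 h at RT (0.1% DMSO). Then 50 μM Ac-LRSR-AMC added. Buffer was Tris pH 7.5 with 600 mM sodium citrate, DTT, EDTA and BSA. Fluorescence (ex 355/em 460 nm) was read after 8 h at RT and normalized to high/low controls. IC50 from non-linear regression.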

[2] = system: IL10 secretion in OCI-LY10 cells; assay: Human IL10 secretion assay, Assay 2 (MSD); type: cell-based; conditions: Homo sapiens, 24 h incubation, Meso Scale Discovery, read-out: IL-10 Secretion IC50 [nM] Assay 2
Method: IL10 is one of the cytokines that are regulated via activation of NF-kB signaling. For example, in ABC-DLBCL cell lines, the activated NF-kB signaling leads to increased IL10 secretion. Inhibition of NF-kB signaling has been shown leading to decreased IL10 secretion.
Assay 2: OCI-LY10 cells were seeded in IMEM supplemented with 20% fetal bovine serum at 4.8×10^5 cells per 160 μL per well in 96-well V-bottom cell culture plates (corning, 3894), treated with 120 nL of 3-fold serial compound dilutions, starting at 4 mM. The final vehicle concentration was 0.075% DMSO in all wells. After a 24 h incubation, human IL-10 precoated plates (Meso Scale Discovery) were washed 3 times with PBST, and 50 μL culture medium was aspirated into the MSD plate and incubated at 4° C. overnight. The supernatant was then discarded, and the wells were washed 3 times with PB ST. SULFO-TAG Anti-human IL-10 Antibody (50×) was diluted 50-fold according to the Meso Scale Protocol, then 25 μL of SULFO-TAG Anti-human IL-10 Antibody (1×) was added. After 2 h of incubation at RT, the supernatant was discarded, and the well was washed 3 times with PBST. 2×read buffer was added and the signal was read on an MSD Sector S600. The effect of a particular compound on IL10 secretion is shown relative to the effect of DMSO; set as 100%. IC50 values (nM) were determined using 4-parametric curve-fitting.

| SMILES | IC50 [1] | IC50 [2] |
| --- | --- | --- |
| CC1(C)CC(C(=O)Nc2cnc(OC3CC3)c(C#N)c2)c2cnc3cc(F)nn3c21 (single isomer, unassigned) [Example 81, N-(5-cyano-6-cyclopropoxypyridin-3-yl)-2-fluoro-8,8-dimethyl-7,8-dihydro-6H-cyclopenta[e]pyrazolo[1,5-a]pyrimidine-6-carboxamide] | 10 to 100 nM | 100 to 1000 nM |
| CC1(C)CC(C(=O)Nc2cnc(OC(F)F)c(C#N)c2)c2cnc3c(F)c(F)nn3c21 (single isomer, unassigned) [Example 91, N-(5-cyano-6-(difluoromethoxy)pyridin-3-yl)-2,3-difluoro-8,8-dimethyl-7,8-dihydro-6H-cyclopenta[e]pyrazolo[1,5-a]pyrimidine-6-carboxamide] | 10 to 100 nM | 100 to 1000 nM |
| O=C(Nc1cnc(-n2nccn2)c(Cl)c1)C1CC2(CC2)c2c1cnc1cc(F)nn21 (single isomer, unassigned) [Example 95, N-(5-chloro-6-(2H-1,2,3-triazol-2-yl)pyridin-3-yl)-2-fluoro-6,7-dihydrospiro[cyclopenta[e]pyrazolo[1,5-a]pyrimidine-8,1′-cyclopropane]-6-carboxamide] | 10 to 100 nM | 100 to 1000 nM |
| O=C(Nc1cnc(-n2nccn2)c(Cl)c1)C1CC2(CC2)c2c1cnc1cc(Cl)nn21 (single isomer, unassigned) [Example 97, 2-chloro-N-(5-chloro-6-(2H-1,2,3-triazol-2-yl)pyridin-3-yl)-6,7-dihydrospiro[cyclopenta[e]pyrazolo[1,5-a]pyrimidine-8,1′-cyclopropane]-6-carboxamide] | 10 to 100 nM | 100 to 1000 nM |
| CC1(C)CC(C(=O)Nc2cnc(-n3nccn3)c(Cl)c2)c2cnc3c(F)cnn3c21 (single isomer, unassigned) [Example 101, N-(5-chloro-6-(2H-1,2,3-triazol-2-yl)pyridin-3-yl)-3-fluoro-8,8-dimethyl-7,8-dihydro-6H-cyclopenta[e]pyrazolo[1,5-a]pyrimidine-6-carboxamide] | 10 to 100 nM | 100 to 1000 nM |
| CC1(C)CC(C(=O)Nc2cnc(-n3ncc(C4COC4)n3)c(Cl)c2)c2cnc3cc(Cl)nn3c21 (single isomer, unassigned) [Example 111, 2-chloro-N-(5-chloro-6-(4-(oxetan-3-yl)-2H-1,2,3-triazol-2-yl)pyridin-3-yl)-8,8-dimethyl-7,8-dihydro-6H-cyclopenta[e]pyrazolo[1,5-a]pyrimidine-6-carboxamide] | < 10 nM | 10 to 100 nM |
| CC1(C)CC(C(=O)Nc2cnc(-n3nccn3)c(Cl)c2)c2cnc3c(F)c(F)nn3c21 (single isomer, unassigned) [Example 122, N-(5-chloro-6-(2H-1,2,3-triazol-2-yl)pyridin-3-yl)-2,3-difluoro-8,8-dimethyl-7,8-dihydro-6H-cyclopenta[e]pyrazolo[1,5-a]pyrimidine-6-carboxamide] | < 10 nM | 100 to 1000 nM |
| CC1(C)CC(C(=O)Nc2cc(N=S(C)(C)=O)nc(C(F)(F)F)c2)c2cnc3cc(F)nn3c21 (single isomer, unassigned) [Example 128, N-(2-((dimethyl(oxo)-λ^6-sulfaneylidene)amino)-6-(trifluoromethyl)pyridin-4-yl)-2-fluoro-8,8-dimethyl-7,8-dihydro-6H-cyclopenta[e]pyrazolo[1,5-a]pyrimidine-6-carboxamide] | 10 to 100 nM | 100 to 1000 nM |
| Cn1nnnc1-c1ncc(NC(=O)C2CC(C)(C)c3c2cnc2cc(Cl)nn32)cc1Cl (single isomer, unassigned) [Example 145, 2-chloro-N-(5-chloro-6-(1-methyl-1H-tetrazol-5-yl)pyridin-3-yl)-8,8-dimethyl-7,8-dihydro-6H-cyclopenta[e]pyrazolo[1,5-a]pyrimidine-6-carboxamide] | < 10 nM | 100 to 1000 nM |
| O=C(Nc1cnc(-n2nccn2)c(C(F)(F)F)c1)C1CC2(CC2)c2c1cnc1cc(Cl)nn21 (single isomer, unassigned) [Example 149, N-(6-(2H-1,2,3-triazol-2-yl)-5-(trifluoromethyl)pyridin-3-yl)-2-chloro-6,7-dihydrospiro[cyclopenta[e]pyrazolo[1,5-a]pyrimidine-8,1′-cyclopropane]-6-carboxamide] | 10 to 100 nM | 100 to 1000 nM |

Second part, the molecule after the results:

| IC50 [1] | IC50 [2] | SMILES |
| --- | --- | --- |
| < 10 nM | 10 to 100 nM | CC1(C)C[C@H](C(=O)Nc2cnc(OC(F)F)c(Cl)c2)c2cnc3cc(F)nn3c21 (single isomer, unassigned) [Example 77, N-(5-chloro-6-(difluoromethoxy)pyridin-3-yl)-2-fluoro-8,8-dimethyl-7,8-dihydro-6H-cyclopenta[e]pyrazolo[1,5-a]pyrimidine-6-carboxamide] |
| < 10 nM | 10 to 100 nM | CC1(C)CC(C(=O)Nc2cnc(OC(F)F)c(C#N)c2)c2cnc3cc(Cl)nn3c21 (single isomer, unassigned) [Example 79, 2-chloro-N-(5-cyano-6-(difluoromethoxy)pyridin-3-yl)-8,8-dimethyl-7,8-dihydro-6H-cyclopenta[e]pyrazolo[1,5-a]pyrimidine-6-carboxamide] |
| < 10 nM | 10 to 100 nM | CC1(C)CC(C(=O)Nc2cnc(OC(F)F)c(C#N)c2)c2cnc3cc(F)nn3c21 (single isomer, unassigned) [Example 84, N-(5-cyano-6-(difluoromethoxy)pyridin-3-yl)-2-fluoro-8,8-dimethyl-7,8-dihydro-6H-cyclopenta[e]pyrazolo[1,5-a]pyrimidine-6-carboxamide] |
| < 10 nM | 100 to 1000 nM | CC1(C)CC(C(=O)Nc2cnc(-n3nccn3)c(C#N)c2)c2cnc3cc(F)nn3c21 (single isomer, unassigned) [Example 89, N-(5-cyano-6-(2H-1,2,3-triazol-2-yl)pyridin-3-yl)-2-fluoro-8,8-dimethyl-7,8-dihydro-6H-cyclopenta[e]pyrazolo[1,5-a]pyrimidine-6-carboxamide] |
| < 10 nM | 100 to 1000 nM | N#Cc1cc(NC(=O)C2CC3(CCC3)c3c2cnc2cc(F)nn32)cnc1OC(F)F (single isomer, unassigned) [Example 103, N-(5-cyano-6-(difluoromethoxy)pyridin-3-yl)-2′-fluoro-6′,7′-dihydrospiro[cyclobutane-1,8′-cyclopenta[e]pyrazolo[1,5-a]pyrimidine]-6′-carboxamide] |
| < 10 nM | 10 to 100 nM | CC1(C)CC(C(=O)Nc2cnc(-n3nccn3)c(C#N)c2)c2cnc3cc(Cl)nn3c21 (single isomer, unassigned) [Example 107, 2-chloro-N-(5-cyano-6-(2H-1,2,3-triazol-2-yl)pyridin-3-yl)-8,8-dimethyl-7,8-dihydro-6H-cyclopenta[e]pyrazolo[1,5-a]pyrimidine-6-carboxamide] |
| < 10 nM | 100 to 1000 nM | O=C(Nc1cnc(-n2nccn2)c(Cl)c1)[C@H]1CC2(CCC2)c2c1cnc1cc(F)nn21 (single isomer, unassigned) [Example 108, N-(5-chloro-6-(2H-1,2,3-triazol-2-yl)pyridin-3-yl)-2′-fluoro-6′,7′-dihydrospiro[cyclobutane-1,8′-cyclopenta[e]pyrazolo[1,5-a]pyrimidine]-6′-carboxamide] |
